This is an account of results in US10206930B2, “Methods for treating T-cell acute lymphoblastic leukemia” (New York University, priority 2015, dated 2019).

Series [1] concerns human T-ALL cells (CUTLL1). As to the kind of experiment: Genome-wide expression analysis (RNA-seq) of treated T-ALL cells. The class given is cell-based. The protocol: Whole RNA was extracted from 1-5×10^6 T-ALL cells or primary cells using the RNeasy kit (QIAGEN) according to the manufacturer's protocol. Poly(A)^+ RNA was enriched using magnetic oligo(dT)-containing beads (Invitrogen). cDNA was prepared and strand-specific libraries were constructed using the dUTP method as described previously (Zhong et al., “High-Throughput Illumina Strand-Specific RNA Sequencing Library Preparation,” Cold Spring Harb. Protoc. 2011:940-949 (2011), which is hereby incorporated by reference in its entirety). Libraries were sequenced on the IIlumina HiSeq 2000 using the 50-base-pair single-read method.
Differential gene expression analysis was performed for each matched knockdown versus control pair, separately in each biological or technical replicate in each of two cell lines (CUTLL1 and CEM). Three types of comparisons were tested: (1) JMJD3 knockdown versus Renilla; (2) JMJD3 knockdown versus UTX knockdown; and (3) UTX knockdown versus Renilla. DEGseq44 was used to analyze (a) matched knockdown—Renilla replicates in separate DEGseq runs and (b) all replicates on a combined DEGexp run. For the mouse (Utx knockout) samples, spleen and bone marrow from a wild-type male (referred to as animal #9), as well as spleen from a wild-type female (animal #10), were compared with spleen and bone marrow from a knockout male (#23) and spleen from another knockout male (#27) (see also the GEO accession G5E56696). For illustration, scatter plots (FIG. 4D and FIGS. 5G-I) were created using values obtained from DEGseq analysis of merged biological and/or technical replicates. Gene RNA-seq FPKM values were computed using GenomicTools (Tsirigos et al., “GenomicTools: A Computational Platform for Developing High-Throughput Analytics in Genomics,” Bioinformatics 28:282-283 (2012), which is hereby incorporated by reference in its entirety). The P-value cutoff for differential expression was set at 1×10^−5, with the minimum absolute log2 fold change set at 0.5.

The subject of a further series is T-ALL cells. As to the kind of experiment: IC50 of GSKJ4 on T-ALL cell proliferation, normalized to control inhibitor GSKJ5. The class given is cell-based. Conditions: Homo sapiens, 120 h, 5 days treatment, FIG. 11A CUTLL1, read-out: IC50 determined for T-ALL cells.
In series [2] the test system is myeloid leukaemia cells, stromal cells and haematopoietic progenitor cells. As to the kind of experiment: Growth of non-T-ALL control cells under GSKJ4. It is filed as cell-based. The following applies: FIGS. 12L-12M.
Series [3] concerns H3K27me3 levels at repressed genes. As to the kind of experiment: H3K27me3 ChIP at repressed genes upon GSKJ4 treatment. It is filed as cell-based, human. Conditions: 24 to 72 hours post-GSKJ4 treatment. On the procedure:
ChIP experiments were performed as described previously (Ntziachristos et al., “Genetic Inactivation of the Polycomb Repressive Complex 2 in T Cell Acute Lymphoblastic Leukemia,” Nature Med. 18:298-303 (2012), which is hereby incorporated by reference in its entirety). In brief, for the analysis of histone marks, the cells were fixed with 1% formaldehyde for 10 minutes at 25° C. and lysed them by the addition of nucleus incubation buffer (15 mM Tris, pH 7.5, 60 mM KCl, 150 mM NaCl, 15 mM MgCl2, 1 mM CaCl2, 250 mM sucrose and 0.3% NP-40) and incubation at 4° C. for 10 minutes. […]
First, enriched ChIP-seq windows were identified separately for each of the two samples under comparison using a window-based approach and the binomial probability distribution to compare signal reads with control reads in each window. Subsequently, for each genomic window enriched in at least one of the two samples, the total number of reads was determined, and the window read counts were normalized using quantile normalization across biological replicates and samples before comparison. […] This comparison was performed independently at different H3K27me3 read density levels to control for artificially high fold changes due to low read counts in the denominator. […]

The test system of series [4] is human T-ALL cell lines and primary human T-ALL cells. As to the kind of experiment: Cell growth, annexin V apoptosis and BrdU cell cycle analysis of T-ALL cells. It is filed as cell-based. Set-up: dose or concentration left out as unconfirmed. From the text: Mice, Cell Culture and Primary Cell Samples. The Jmjd3 (Satoh et al., “The Jmjd3-Irf4 Axis Regulates M2 Macrophage Polarization and Host Responses Against Helminth Infection,” Nature Immunol. 11:936-944 (2010), which is hereby incorporated in its entirety) and Utx (Welstead et al., “X-linked H3K27me3 Demethylase Utx is Required for Embryonic Development in a Sex-Specific Manner,” Proc. Natl. Acad. Sci. USA 109:13004-13009 (2012), which is hereby incorporated by reference in its entirety) knockout mouse models, as well as the corresponding genotyping strategy, have been described previously. All animals used in this study were treated according to IACU protocols. The human T-ALL cell lines CUTLL1 (Palomero et al., “CUTLL1, a Novel Human T-Cell Lymphoma Cell Line With t(7; 9) Rearrangement, Aberrant NOTCH1 Activation and High Sensitivity to c-Secretase Inhibitors,” Leukemia 20:1279-1287 (2006), which is hereby incorporated by reference in its entirety), P12-Ichikawa, Loucy, DND41, CEM and Jurkat and the myeloid leukaemia cell lines (THP-1 and HL-60), as well as the mouse T-ALL line (720) (Sharma et al., “Notch1 Contributes to Mouse T-cell Leukemia by Directly Inducing the Expression of c-myc,” Mol. Cell. Biol. 26:8022-8031 (2006), which is hereby incorporated by reference in its entirety), were cultured in RPMI 1640 medium supplemented with 20% FBS and penicillin and streptomycin. […] Primary human samples were collected by collaborating institutions with informed consent and were analyzed under the supervision of the Columbia University Medical Center and St. Jude Children's Research Hospital Institutional Review Boards. […]
T-ALL cells were infected twice with shRNA-expressing retroviruses and selected using puromycin. […] For the cell cycle analysis, 5-bromodeoxyuridine (BrdU; 10 mM) was added for a 1 hour pulse, and incorporation into DNA was determined by using the BrdU Flow Kit (BD Biosciences). Apoptosis was studied by quantification of annexin V staining using the BD Biosciences kit and flow cytometry according to standard protocols provided by the manufacturer. […]

A further series has as its system human T-ALL cells. As to the kind of experiment: shRNA knockdown: loss of representation studies and apoptosis assays. The class given is cell-based. The following applies: shRNA treatment. The protocol: T-ALL cells were infected twice with shRNA-expressing retroviruses and selected using puromycin. Expression studies took place at different time points during the selection period, and the results are presented from day 4 during selection. […] For the cell cycle analysis, 5-bromodeoxyuridine (BrdU; 10 mM) was added for a 1 hour pulse, and incorporation into DNA was determined by using the BrdU Flow Kit (BD Biosciences). Apoptosis was studied by quantification of annexin V staining using the BD Biosciences kit and flow cytometry according to standard protocols provided by the manufacturer. Doxycycline was used at […] final concentration.
Protein-G-coated magnetic beads were purchased from Invitrogen. […] Reporter fluorescence was used (as determined by flow cytometry) for the quantification of shRNA.

Series [5] relates to T-ALL cell lines (CUTLL1, CEM and P12). Kind of series: Subcutaneous or intravenous xenograft of shRNA-treated T-ALL cell lines. The class given is in vivo, mouse. Conditions: immunocompromised NRG mice; compared with shRenilla-treated cell lines. On the procedure:
Studies were conducted as previously published (Ntziachristos et al., “Genetic Inactivation of the Polycomb Repressive Complex 2 in T Cell Acute Lymphoblastic Leukemia,” Nature Med. 18:298-303 (2012), which is hereby incorporated by reference in its entirety). In both cases, CUTLL1, P12 or CEM T-ALL cells expressing luciferase (FUW-LUC) and the corresponding shRNA (shJMJD3, shUTX or shRenilla) were used. For the intravenous studies, 1×10^6 cells were injected retroorbitally into sublethally irradiated female NRG (NOD Rag1^−/−Il2rg^−/−) mice. For subcutaneous studies, 1×10^6 cells were mixed with an equal volume of BD Matrigel basement membrane and injected into the flanks of female NOD-SCID mice. In both cases, cell growth was monitored every 2 days using IVIS (Caliper, PerkinElmer).

Setting [6] is: GSKJ4 vs control inhibitor GSKJ5.

As to `CCOC(=O)CCNc1cc(N2CCc3ccccc3CC2)nc(-c2ccccn2)n1` [GSKJ4, ethyl 3-((6-(4,5-dihydro-1H-benzo[d]azepin-3(2H)-yl)-2-(pyridin-2-yl)pyrimidin-4-yl)amino)propanoate], the “number of downregulated genes” value in series [1] (CUTLL1, 72 hours of treatment with GSKJ4) is 486 genes. In the series with T-ALL cells, the half-maximal inhibitory concentration (IC50) (commonly the concentration that inhibits the measured activity by half) worked out at 2000 nM. Besides, the “growth of myeloid leukaemia cells, stromal cells and haematopoietic progenitor cells” value in series [2] was “unaffected”. Moreover, in series [3], the “H3K27me3 levels at repressed genes” value was “increase in the H3K27me3 levels”. In series [4] (setting [6]), the “apoptosis (annexin V)” value was “increased apoptosis” and the cell cycle effect result is reported as “cell cycle arrest”. The “growth of human T-ALL cell lines and primary human T-ALL cells” value in series [4] (GSKJ4 vs control inhibitor GSKJ5, 24-72 hours) is listed as “significantly affected the growth”.

B1: shUTX: shRNA against UTX, SEQ ID NO: 5 (nucleic acid)
chain: ACACAAGGTAGTCTACAGAATATAGTGAAGCCACAGATGTATATTCTGTAGACTACCTTGTGG
As for B1, in the series on human T-ALL cells, the “viability of leukaemic cells” value is given as “not”. Also, in series [1] (shRNA knockdown), the “number of significantly downregulated protein-coding genes” value is 46 genes and the “number of significantly upregulated protein-coding genes” value turned out to be 189 genes.

B2: shJMJD3A: shRNA against JMJD3, SEQ ID NO: 3 (nucleic acid)
chain: CAGGGAAGTTTCGAGAAGTCCTATAGTGAAGCCACAGATGTATAGGACTCTCGAACTTCCCTT
With B2, the “in vivo growth of transplanted T-ALL cells” value in series [5] was “significant growth disadvantage”.

B3: shJMJD3B: shRNA against JMJD3, SEQ ID NO: 4 (nucleic acid)
chain: ACACCAGCAGTAGCAACAGCAATAGTGAAGCCACAGATGTATTGCTGTTGCTACTGCTGGTGG
Turning to B3, in series [5], the “in vivo growth of transplanted T-ALL cells” value is “significant growth disadvantage”.
